For 26 molecules, EC50 results are on record in US20230279016A1, “Tetrahydropyrazolopyrimidines and Related Analogs for Inhibiting YAP/TAZ-TEAD” (THE KATHOLIEKE UNIVERSITEIT LEUVEN, priority 2021, published 2023).

Structures are written as SMILES.

Assay type in all cases: cell-based
In experiment [1] the test system is NCI-H2052 mesothelioma cell line. The experiment in a line: Mesothelioma cell line proliferation assay, NCI-H2052. The conditions noted are these: NCI-H2052, 6 days with compound, cell viability by ATPlite. The procedure: (§1) Mesothelioma cell lines, NCI-H226 and NCI-H2052 (all sourced from the ATCC cell culture collection) are plated in 96-well plates (Corning® 96 Well White Polystyrene Microplate clear flat bottom, white polystyrene (TC-Treated)), at 1500 cells/well in full medium (RPMI 1640 ATCC modification with L-glutamine, HEPES, Phenol Red, Sodium Pyruvate, High glucose, Low sodium bicarbonate and 10% fetal bovine serum). Cells are incubated overnight at 37° C. in an incubator with 5% CO2. Then compounds, dissolved in DMSO, are added in dose-response. Cells are incubated with compound dilutions for another 6 days at 37° C. in an incubator with 5% CO2. Cell viability is quantitated using the ATPlite kit (Perkin-Elmer) and the luminescence is read-out using an Envision instrument (Perkin-Elmer). The amount of relative light units produced using the ATPlite kit is used to calculated percent of inhibition.
(§2) The activities of example compounds tested are depicted in the table below. The activity ranges A, B and C refer to EC50 values in the mesothelioma cell line proliferation assay as described as follows: “A”: EC50 <1 μM; “B” : 1 μM EC50 ≤10 μM and “C” : EC50 >10 μM. NT: not tested.
(In general: ATP-based viability assays read luminescence as a measure of living cells.)

Experiment [2] has as its system NCI-H226 mesothelioma cell line. In words: Mesothelioma cell line proliferation assay, NCI-H226. The conditions noted are these: NCI-H226, 6 days with compound, cell viability by ATPlite. As to the method:
as §1, §2

In experiment [3] the test system is YAP/TAZ-TEAD transcription. In words: Reporter gene assay for measuring the inhibition of YAP/TAZ-TEAD transcription (TEAD-responsive element luciferase reporter in Hek293T cells). The conditions noted are these: Hek293T cells transiently transfected with TEAD-responsive element luciferase reporter, 24 hours incubation. The method, boiled down:
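Hek293T cells transiently transfected with TEAD-responsive luciferase reporter, exposed to compound for 24 h at 37° C/5% CO2, then read by luminescence. Percent inhibition normalized to vehicle (0%) and positive control inhibitor (100%); EC50 reported as activity ranges.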
For orientation: A reporter such as luciferase makes a cellular process visible.

As usually defined, the EC50 is the concentration that produces a half-maximal response.

As for `C=CC(=O)NCC1CN(c2ccc(OC(F)(F)F)cc2)c2cc(C(F)(F)F)nn2C1` (single isomer, unassigned) [Cpd. No. 035-En2, (R)- or (S)-N-((4-(4-(trifluoromethoxy)phenyl)-2-(trifluoromethyl)-4,5,6,7-tetrahydropyrazolo[1,5-a]pyrimidin-6-yl)methyl)acrylamide], the EC50 in experiment [1] (Homo sapiens, NCI-H2052, 144 h) is 1000 to 10000 nM; in experiment [2] (Homo sapiens, NCI-H226, 144 h), less than 1000 nM. The matching figures for `C=CC(=O)NCC1CN(c2cccc(C(F)(F)F)c2)c2ccnn2C1` (single isomer, unassigned) [Cpd. No. 003-En1, (R)- or (S)-N-((4-(3-(trifluoromethyl)phenyl)-4,5,6,7-tetrahydropyrazolo[1,5-a]pyrimidin-6-yl)methyl)acrylamide]: greater than 10000 nM and 1000 to 10000 nM. For `C=CC(=O)NCC1CN(c2ccc(OC(F)(F)F)c(F)c2)c2ccnn2C1` (single isomer, unassigned) [Cpd. No. 018-En2, (R)- or (S)-N-((4-(3-fluoro-4-(trifluoromethoxy)phenyl)-4,5,6,7-tetrahydropyrazolo[1,5-a]pyrimidin-6-yl)methyl)acrylamide], the EC50 in experiment [1] and in experiment [2] was less than 1000 nM each time.

With `C=CC(=O)NCC1CN(c2ccc(Br)cc2)c2ccnn2C1` (single isomer, unassigned) [Cpd. No. 021-En2, (R)- or (S)-N-((4-(4-bromophenyl)-4,5,6,7-tetrahydropyrazolo[1,5-a]pyrimidin-6-yl)methyl)acrylamide], the EC50 in experiment [1] (Homo sapiens, NCI-H2052, 144 h) was less than 1000 nM; in experiment [2] (Homo sapiens, NCI-H226, 144 h) it was less than 1000 nM. For `C=CC(=O)NC1CN(c2ccc(C(F)(F)F)c(F)c2)c2ccnn2C1` (single isomer, unassigned) [Cpd. No. 064-En1, (R)- or (S)-N-(4-(3-fluoro-4-(trifluoromethyl)phenyl)-4,5,6,7-tetrahydropyrazolo[1,5-a]pyrimidin-6-yl)acrylamide], the EC50 is less than 1000 nM in experiment [1] (Homo sapiens, NCI-H2052, 144 h) and less than 1000 nM in experiment [2] (Homo sapiens, NCI-H226, 144 h). On to `C=CC(=O)NCC1CN(c2ccc(OC(F)(F)F)c(F)c2)c2ccnn2C1` (single isomer, unassigned) [Cpd. No. 018-En1, (R)- or (S)-N-((4-(3-fluoro-4-(trifluoromethoxy)phenyl)-4,5,6,7-tetrahydropyrazolo[1,5-a]pyrimidin-6-yl)methyl)acrylamide], for which the EC50 in experiment [1] (Homo sapiens, NCI-H2052, 144 h) is less than 1000 nM; in experiment [2] (Homo sapiens, NCI-H226, 144 h), less than 1000 nM.

With `C=CC(=O)NCC1CN(c2cccc(F)c2)c2ccnn2C1` (single isomer, unassigned) [Cpd. No. 004-En2, (R)- or (S)-N-((4-(3-fluorophenyl)-4,5,6,7-tetrahydropyrazolo[1,5-a]pyrimidin-6-yl)methyl)acrylamide], the EC50 in experiment [3] is less than 1000 nM.

Molecule `C=CC(=O)NCC1CN(c2ccc(OC(F)(F)F)c(F)c2)c2ccnn2C1` (stereo not drawn) [Cpd. No. 018, N-((4-(3-fluoro-4-(trifluoromethoxy)phenyl)-4,5,6,7-tetrahydropyrazolo[1,5-a]pyrimidin-6-yl)methyl)acrylamide] had an EC50 in experiment [3] (Homo sapiens, HEK-293T, 24 h) of less than 1000 nM.

With `CS(=O)(=O)NCC1CN(Cc2cccc(C(F)(F)F)c2)c2ccnn2C1` (stereo not drawn) [Cpd. No. 054, N-((4-(3-(trifluoro-methyl)benzyl)-4,5,6,7-tetrahydropyrazolo[1,5-a]pyrimidin-6-yl)-methyl)methanesulfonamide], in experiment [3] (Homo sapiens, HEK-293T, 24 h), the EC50 is greater than 20000 nM.

As to `C=CC(=O)NCC1CN(CC#Cc2ccccc2)c2ccnn2C1` (stereo not drawn) [Cpd. No. 056, N-((4-(3-phenylprop-2-yn-1-yl)-4,5,6,7-tetrahydropyrazolo[1,5-a]pyrimidin-6-yl)-methyl)acrylamide], in experiment [3] (Homo sapiens, HEK-293T, 24 h), the concentration for a half-maximal effect (EC50) was less than 1000 nM.

Regarding `N#CCC(=O)NCC1CN(c2ccc(C(F)(F)F)cc2)c2ccnn2C1` (stereo not drawn) [Cpd. No. 042, 2-cyano-N-((4-(4-(trifluoromethyl)phenyl)-4,5,6,7-tetrahydropyrazolo[1,5-a]pyrimidin-6-yl)methyl)acetamide], the EC50 in experiment [3] (Homo sapiens, HEK-293T, 24 h) is greater than 20000 nM. In experiment [3], `CCC(=O)NCC1CN(c2ccc(C(F)(F)F)cc2)c2ccnn2C1` (single isomer, unassigned) [Cpd. No. 028-En1, (R)- or (S)-N-((4-(4-(trifluoromethyl)phenyl)-4,5,6,7-tetrahydropyrazolo[1,5-a]pyrimidin-6-yl)methyl)propionamide] had an EC50 greater than 20000 nM.

With `C=CC(=O)NCC1CN(c2ccc(C(F)F)nc2)c2ccnn2C1` (stereo not drawn) [Cpd. No. 010, N-((4-(6-(difluoromethyl)pyridin-3-yl)-4,5,6,7-tetrahydropyrazolo[1,5-a]pyrimidin-6-yl)methyl)acrylamide], in experiment [3], the EC50 is less than 1000 nM. Molecule `C=CC(=O)NC1CN(c2ccc(C(F)(F)F)cc2)c2ccnn2C1` (single isomer, unassigned) [Cpd. No. 061-En2, (R)- or (S)-N-(4-(4-(trifluoromethyl)phenyl)-4,5,6,7-tetrahydropyrazolo[1,5-a]pyrimidin-6-yl)acrylamide] had an EC50 in experiment [3] of less than 1000 nM. `CCC(=O)NCC1CN(Cc2cccc(C(F)(F)F)c2)c2ccnn2C1` (stereo not drawn) [Cpd. No. 053, N-((4-(3-(trifluoro-methyl)benzyl)-4,5,6,7-tetrahydropyrazolo[1,5-a]pyrimidin-6-yl)-methyl)propionamide]: the EC50 in experiment [3] (Homo sapiens, HEK-293T, 24 h) is greater than 20000 nM. In experiment [3], `C=CC(=O)NCC1CN(c2ccc(C(F)(F)F)cc2)c2cc(CC3CC3)nn2C1` (single isomer, unassigned) [Cpd. No. 032-En1, (R)- or (S)-N-((2-(cyclopropylmethyl)-4-(4-(trifluoromethyl)phenyl)-4,5,6,7-tetrahydropyrazolo[1,5-a]pyrimidin-6-yl)methyl)acrylamide] displayed an EC50 of less than 1000 nM.

`CS(=O)(=O)N1CCC2(CN(c3ccc(C(F)(F)F)cc3)c3ccnn3C2)C1=O` (single isomer, unassigned) [Cpd. No. 089-En2, (R)- or (S)-1′-(methylsulfonyl)-4-(4-(trifluoromethyl)phenyl)-4,5-dihydro-7H-spiro[pyrazolo[1,5-a]pyrimidine-6,3′-pyrrolidin]-2′-one] came in with an EC50 in experiment [3] greater than 20000 nM. In the case of `C=CC(=O)NCC1CN(c2ccc(SC(F)(F)F)cc2)c2ccnn2C1` (stereo not drawn) [Cpd. No. 020, N-((4-(4-((trifluoromethyl)thio)phenyl)-4,5,6,7-tetrahydropyrazolo[1,5-a]pyrimidin-6-yl)methyl)acrylamide], in experiment [3] (Homo sapiens, HEK-293T, 24 h), the EC50 was less than 1000 nM. Consider `C=CC(=O)NCC1CN(C(=O)C2CCCCC2)c2ccnn2C1` (single isomer, unassigned) [Cpd. No. 046-En1, (R)- or (S)-N-((4-(cyclohexanecarbonyl)-4,5,6,7-tetrahydropyrazolo[1,5-a]pyrimidin-6-yl)methyl)acrylamide], for which the EC50 in experiment [3] was 1000 to 20000 nM. For `C=CC(=O)NCC1CN(S(=O)(=O)c2ccc(C(F)(F)F)cc2)c2ccnn2C1` (stereo not drawn) [Cpd. No. 045-En1, N-((4-((4-(trifluoromethyl)phenyl)sulfonyl)-4,5,6,7-tetrahydropyrazolo[1,5-a]pyrimidin-6-yl)methyl)acrylamide], in experiment [3], the EC50 fell in the range of 1000 to 20000 nM. Turning to `C=CC(=O)NCC1CN(CC2CCCCC2)c2ccnn2C1` (single isomer, unassigned) [Cpd. No. 055-En2, (R)- or (S)-N-((4-(cyclohexylmethyl)-4,5,6,7-tetrahydropyrazolo[1,5-a]pyrimidin-6-yl)-methyl)acrylamide], the EC50 is greater than 10000 nM in experiment [1] (Homo sapiens, NCI-H2052, 144 h) and less than 1000 nM in experiment [2] (Homo sapiens, NCI-H226, 144 h). Turning to `C=CC(=O)NCC1CN(C(=O)C2CCCCC2)c2ccnn2C1` (stereo not drawn) [Cpd. No. 046, N-((4-(cyclohexanecarbonyl)-4,5,6,7-tetrahydropyrazolo[1,5-a]pyrimidin-6-yl)methyl)acrylamide], the EC50 in experiment [3] (Homo sapiens, HEK-293T, 24 h) lay in the range of 1000 to 20000 nM. The molecule `C=CC(=O)NCC1CN(c2ccc(Cl)cc2)c2ccnn2C1` (single isomer, unassigned) [Cpd. No. 005-En2, (R)- or (S)-N-((4-(4-chlorophenyl)-4,5,6,7-tetrahydropyrazolo[1,5-a]pyrimidin-6-yl)methyl)acrylamide] yielded an EC50 in experiment [3] of less than 1000 nM. In experiment [3], `C=CC(=O)NC1CN(c2ccc(C(F)(F)F)cc2F)c2ccnn2C1` (single isomer, unassigned) [Cpd. No. 065-En2, (R)- or (S)-N-(4-(2-fluoro-4-(trifluoromethyl)phenyl)-4,5,6,7-tetrahydropyrazolo[1,5-a]pyrimidin-6-yl)acrylamide] came in with an EC50 of less than 1000 nM. Consider `C=CC(=O)NC1CN(c2ccc(Cl)cc2)c2ccnn2C1` (stereo not drawn) [Cpd. No. 066, N-(4-(4-chlorophenyl)-4,5,6,7-tetrahydropyrazolo[1,5-a]pyrimidin-6-yl)acrylamide], for which the 50% effective concentration (EC50) in experiment [3] (Homo sapiens, HEK-293T, 24 h) is less than 1000 nM.

In experiment [3] (Homo sapiens, HEK-293T, 24 h), `CN(C)C/C=C/C(=O)NCC1CN(c2ccc(C(F)(F)F)cc2)c2ccnn2C1` (stereo not drawn) [Cpd. No. 041, (E)-4-(dimethylamino)-N-((4-(4-(trifluoromethyl)phenyl)-4,5,6,7-tetrahydropyrazolo[1,5-a]pyrimidin-6-yl)methyl)but-2-enamide] registered an EC50 of 1000 to 20000 nM.
